Legend:
[1] = system: retinal vascular leakage in diabetic retinopathy; test: Retinal vascular leakage in streptozotocin-induced diabetic retinopathy; type: in vivo, Long-Evans rats; conditions: two weeks after streptozotocin-induced diabetes; aprotinin 50,000 KIU, systemic
Description: After an overnight fast, Long-Evans rats (Charles River, Wilmington, Mass.), weighing 200-250 g, received single 60 mg/kg intraperitoneal injections of streptozotocin (Sigma, St. Louis, Mo.) in 10 mM citrate buffer (pH 4.5). Control nondiabetic animals received citrate buffer alone. Animals with blood glucose levels greater than 250 mg/dl 24 hours after the streptozotocin injections were considered diabetic. The rats were fed standard laboratory chow and allowed free access to water. Before each experiment, the diabetic state was reconfirmed to be 250 mg/dl or higher.
Asterisks indicate statistical significance.

[2] = system: retinal vascular permeability; test: Qualitative evaluation of retinal vascular permeability with 20-kDa FITC conjugated dextran; type: in vivo, Brown Norway rats; conditions: flat-mount retinas, VEGF-injected eyes with or without aprotinin
Description: Retinal vascular permeability was documented in a histological manner by intravenous injection of 20-kDa FITC conjugated dextran (50 mg/Kg, Sigma Aldrich). Rats were sacrificed 30 minutes later with intracardiac perfusion of 4% paraformaldehyde to fix the dextran conjugate in the tissues. The retinas were carefully dissected and flat mounted in anti-fading medium (Vector Laboratories). Flat-mount retinas were examined by fluorescent microscopy. Digital color enhancement (green) was equally applied to all images for improved visualization of fluorescence.

[3] = target: T1, human neutrophil azurocidin (Homo sapiens, UniProt P20160); test: Suppression of azurocidin-induced BRB breakdown (Evans Blue); type: in vivo, Brown Norway rats
T1 construct: purchased Athens Research and Biotechology, Atlanta, Ga
T1 sequence (P20160 27-248): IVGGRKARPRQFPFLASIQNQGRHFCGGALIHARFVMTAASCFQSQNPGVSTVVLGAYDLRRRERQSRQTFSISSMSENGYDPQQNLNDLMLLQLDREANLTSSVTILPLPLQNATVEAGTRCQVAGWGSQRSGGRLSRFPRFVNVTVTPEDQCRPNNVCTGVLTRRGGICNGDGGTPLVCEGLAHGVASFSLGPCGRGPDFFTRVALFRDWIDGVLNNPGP
Description: This study employed Brown Norway rats, AZ (1 μg, 10 μg, 20 μg), PBS, aprotinin, VEGF164, and polyclonal anti-AZ antibody (1 μg). Briefly, Brown Norway rats received intravitreal injections of AZ (1 μg, 10 μg and 20 μg) in one eye and PBS in the contralateral eye. BRB breakdown was quantified using the Evans Blue (EB) technique at 1 hour, 3 hours, and 24 hours after intravitreal injection of AZ or PBS. To assess whether AZ induced retinal leukostasis, firm leukocyte adhesion was quantified at 3 hours and 24 hours post AZ injection (10 μg) using the ex vivo conconavalin leukostasis assay. To block AZ, rats were treated with a single intravenous injection of aprotinin (30,000KIU), prior to the intravitreal injections. To investigate whether AZ was involved in VEGF-induced BRB breakdown, rats received intravitreal injections of 50 ng recombinant mouse VEGF164 in one eye and PBS in the other eye and were treated intravenously with aprotinin (50,000KIU every eight hours) or polyclonal anti-AZ antibody (1 μg). BRB breakdown and retinal leukostasis were quantified 24 hours after VEGF injection.
In a second group, the rats were additionally treated intravenously with the azurocidin inhibitor, aprotinin (Trasylol®, Bayer Pharmaceuticals). […] The retinas were analyzed one hour after azurocidin administration using the Evans Blue technique.
Retinal vascular permeability was quantified as previously described (Qaum et al. (2002) supra, Xu et al. (2001) INVEST. OPHTHALMOL. VIS. SCI. 42; 789-94). […] The background-subtracted absorbance was determined by measuring each sample at 620 nm (the absorbance maximum for Evans blue dye in formamide) and 740 nm (the absorbance minimum) with a spectrophotometer. The concentration of dye in the plasma was calculated from a standard curve of Evans blue dye in formamide. […] The background-subtracted absorbance was determined by measuring each sample at 620 nm (the absorbance maximum for Evans blue dye in formamide) and 740 nm (the absorbance minimum). The concentration of dye in the extracts was calculated from a standard curve of Evans blue dye in formamide. […]

With aprotinin the “vascular leakage (normalized BRB leakage)” value [1] was “comparable to that of normal animals”, the “retinal distribution of intravenously injected 20 kDa FITC-conjugated dextran” value [2] was “fluorescein staining more localized to the retinal vasculature” and the “basal levels of retinal vascular leakage” value ([3]; aprotinin treatment alone (PBS-injected eye)) was “did not affect basal levels of retinal vascular leakage”. The “block of AZ-induced leakage” value ([3]; single i.v. 30,000KIU 1 hour before intravitreal azurocidin 20 μg, Evans Blue 1 hour later) was “greater than 98%” and the “Evans Blue retinal leakage in AZ-injected eyes” value ([3]; single i.v. 30,000KIU 1 hour before intravitreal azurocidin, AZ alone 45±17) was 6±0.64 μl plasma/g retina/h.
